Tests used:
[1] = test system: MCL-1; test: Immunoblot, relative level of anti-apoptotic protein MCL-1 in CLL-B cells; type: cell-based, human; settings: CLL-B cells from 10 patients, overnight, 10 µM
Description: (§1) Concerning anti-apoptotic protein expression, a decrease in anti-apoptotic proteins BCL-2; BCL-XL and MCL-1 was observed after TAT-Pep treatment of CLL-B cells, possibly as a consequence of the SRC kinase inactivation (Fig. 6A–C). To unveil whether the regulation mechanism behind the observed modifications was transcriptional or post-transcriptional, we evaluated the mRNA levels of all three anti-apoptotic proteins following peptide treatment. […] To further underline that the induction of cell death following TAT-Pep treatment involved apoptosis regulation pathways, we used B cells from six CLL patients and stained them with Annexin V in both TAT-Pep treated and untreated conditions. […]
(§2) Figure 6 The peptide lowers anti-apoptotic proteins levels. […] CLL-B cells from 12 patients were incubated overnight, with or without 10 µM of TAT-Pep, subsequently RNA was extracted from cell lysates and mRNA levels of BCL-2 (D); BCL-XL (E) and MCL-1 (F) were evaluated using RTqPCR; 18S was used as a housekeeping gene. (G) Increased concentrations (0 to 30 µM) of TAT-Pep were incubated with 20,000 CLL-B, and the number of Annexin V-positive cells was measured using the Incucyte live-cell imaging device. Fluorescence was monitored for 48 h. […] The ‘Green Object Count/Phase Object Count’ ratio was determined using the Incucyte analysis software to obtain the percentage of apoptotic cells. […]

[2] = test system: MCL-1 mRNA; test: RTqPCR, mRNA level of MCL-1 in CLL-B cells; type: cell-based, human; settings: CLL-B cells from 12 patients, overnight, 10 µM, 18S housekeeping gene
Description: as §1, §2

[3] = molecular target: NTSR2/TRKB interaction (Homo sapiens, UniProt Q16620); test: NTSR2-AviTag pull-down, inhibition of the NTSR2/TRKB interaction in transfected HEK293T cells; type: cell-based; parameters: host or cells: HEK293T
Description: Nuclei were stained with DAPI (blue). […] (C) Representative immunoblot of 3 independent experiments. […] Nuclei were stained with DAPI (blue). Magnification × 40.
The amount of co-immunoprecipitated TRKB protein was detected by immunoblot (Fig. 4C,D). […] This is associated to the low penetration of the peptide in the cells.
Vectors used were constructed by Vector Builder. The vector builder IDs are VB201022-1029qpx (BirA); VB201022-1027yza (TRKB-NTSR2) and VB201022-1012yjb (TRKB-NTSR2-AviTag™). 500 000 HEK293T cells were seeded and transfected the following day with 3 µg of plasmid using jetPEI (Polyplus Transfection). They were then treated with 40 µM biotin and with or without […] of BDNF (ABclonal).
Proteins were extracted using RIPA buffer (Sigma-Aldrich) and sonication (VibraCell™). They were then incubated with 30 μL of streptavidin-functionalized magnetic beads (Invitrogen) for 2 h at 4 °C under rotation. For western blot analysis, the magnetic beads were washed 4 times with cold PBS and the fixed proteins were eluted in 4 × Laemmli buffer supplemented with 10% β-mercaptoethanol and denatured at 95 °C for 5 min.
Whole cell lysate proteins were extracted using RIPA buffer (Sigma-Aldrich) and sonication (VibraCell™). […] Bands were quantitatively assessed by densitometry using Fiji software. […]

[4] = test system: CLL-B cells; test: Apoptosis of CLL-B cells, Annexin V staining (Incucyte); type: cell-based, human; settings: 20,000 CLL-B cells, 6 patients, technical triplicates, Annexin V Dye, 48 h, area under the curve
Description: Concerning anti-apoptotic protein expression, a decrease in anti-apoptotic proteins BCL-2; BCL-XL and MCL-1 was observed after TAT-Pep treatment of CLL-B cells, possibly as a consequence of the SRC kinase inactivation (Fig. 6A–C). To unveil whether the regulation mechanism behind the observed modifications was transcriptional or post-transcriptional, we evaluated the mRNA levels of all three anti-apoptotic proteins following peptide treatment. […] To further underline that the induction of cell death following TAT-Pep treatment involved apoptosis regulation pathways, we used B cells from six CLL patients and stained them with Annexin V in both TAT-Pep treated and untreated conditions. As shown on Fig. 6G, TAT-Pep treatment did induce apoptosis in CLL-B cells. […] However, at 5 µM, there was already a 1.9-fold increase in cell death compared to the control. It progressively rose to a 2.5-fold increase and a 3.6-fold increase for 10 µM and 30 µM, respectively.
Figure 6 The peptide lowers anti-apoptotic proteins levels. CLL-B cells from 10 patients were incubated overnight, with or without 10 µM of TAT-Pep. Whole cell lysates were then prepared, and 10 µg of proteins were immunoblotted to assess the following parameters. (A) Relative level of the anti-apoptotic protein BCL-2 in B-CLL. (B) Relative level of the anti-apoptotic protein BCL-XL and (C) relative level of the anti-apoptotic protein MCL-1. CLL-B samples from ten different patients were utilized for the analysis. CLL-B cells from 12 patients were incubated overnight, with or without 10 µM of TAT-Pep, subsequently RNA was extracted from cell lysates and mRNA levels of BCL-2 (D); BCL-XL (E) and MCL-1 (F) were evaluated using RTqPCR; 18S was used as a housekeeping gene. (G) Increased concentrations (0 to 30 µM) of TAT-Pep were incubated with 20,000 CLL-B, and the number of Annexin V-positive cells was measured using the Incucyte live-cell imaging device. Fluorescence was monitored for 48 h. […] The ‘Green Object Count/Phase Object Count’ ratio was determined using the Incucyte analysis software to obtain the percentage of apoptotic cells. The area under the curve for each condition was then calculated, and they were compared using a t-test.
Cell viability and survival were monitored using the IncucyteS3 system (Sartorius), a live-cell imaging device enabling the tracking of fluorescence over set periods of time[41],[42]. […] In all analyses, the ‘Green Object Count/Phase Object Count’ ratio was determined using the Incucyte analysis software to obtain the percentage of dead cells. The area under the curve for each condition was then calculated, and they were compared using a t-test. To evaluate proliferation, phase confluence was determined and normalized with t = 0 h using the Incucyte analysis software.

NTSR2/TRKB interaction, sequence (Q16620 32-822): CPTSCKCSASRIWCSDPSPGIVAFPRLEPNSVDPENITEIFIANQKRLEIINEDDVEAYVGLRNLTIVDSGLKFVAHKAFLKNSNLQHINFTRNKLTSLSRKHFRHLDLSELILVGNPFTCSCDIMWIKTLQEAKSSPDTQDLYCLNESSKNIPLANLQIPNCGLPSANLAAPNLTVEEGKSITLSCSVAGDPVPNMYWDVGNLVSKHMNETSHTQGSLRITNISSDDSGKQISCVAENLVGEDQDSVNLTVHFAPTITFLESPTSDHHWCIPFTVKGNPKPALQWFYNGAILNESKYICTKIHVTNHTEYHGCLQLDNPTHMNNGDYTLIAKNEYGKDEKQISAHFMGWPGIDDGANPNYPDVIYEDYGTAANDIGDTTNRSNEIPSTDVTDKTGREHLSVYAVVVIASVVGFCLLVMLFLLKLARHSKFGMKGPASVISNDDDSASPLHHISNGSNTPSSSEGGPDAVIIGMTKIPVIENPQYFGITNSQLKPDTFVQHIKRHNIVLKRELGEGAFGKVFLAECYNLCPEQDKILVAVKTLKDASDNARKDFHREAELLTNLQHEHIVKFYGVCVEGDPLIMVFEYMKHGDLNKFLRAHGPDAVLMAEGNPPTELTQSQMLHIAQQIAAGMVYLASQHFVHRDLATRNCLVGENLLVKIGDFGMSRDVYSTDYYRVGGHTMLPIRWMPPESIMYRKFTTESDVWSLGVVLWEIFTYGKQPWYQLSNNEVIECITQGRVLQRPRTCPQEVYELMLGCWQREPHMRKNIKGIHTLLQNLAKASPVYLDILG

“GRKKRRQRRRPPQNAVSSSFRKLFLEAVSSLCGEHHPMKRLPPKPQSPTLMDTASGFGDPPETRT [TAT-Pep]” was tested, and the “level of anti-apoptotic protein MCL-1 (in words)” value [1] was “decrease”, the “mRNA level of MCL-1 (in words)” value [2] was “significantly lowered expression” and the “amount of co-immunoprecipitated TRKB protein (TRKB/NTSR2 ratio, in words)” value ([3]; transfected HEK293T cells incubated overnight with 10 µM peptide, streptavidin pull-down, immunoblot densitometry, 3 independent experiments) was “significant decrease”. The “effect of BDNF addition on the inhibited NTSR2/TRKB interaction (in words)” value ([3]; transfected HEK293T cells, 10 µM peptide overnight, BDNF in the culture medium) was “did not restore the interaction”, the “Annexin V-positive cells compared to the control (in words)” value ([4]; 2.5 µM) was “no significant cytotoxicity was observed” and the “increase in cell death (Annexin V-positive cells) compared to the control” value (from here on “increase in cell death”) ([4]; 5 µM) was 1.9 fold. For the same sequence, the “increase in cell death” value ([4]; 10 µM) was 2.5 fold and the “increase in cell death” value ([4]; 30 µM) was 3.6 fold.

From publication PMC10937676, “Targeting the NTSR2/TrkB oncogenic pathway in chronic lymphocytic leukemia” (Scientific Reports, 2024)
